According to ChEMBL document CHEMBL1201862, “PubChem BioAssay data set” (2004):
Values belong to the compound of their own block, whether it stands above or below them. Calls of active or inactive are those of the source. Unless noted, no cut-off for these calls is given here.

What was measured:
[1] = target: Voltage-dependent T-type calcium channel subunit alpha-1H (Homo sapiens, UniProt O95180); assay: Cav3.2 T-type channel inhibitors, cell-based, synthetic library set 1, calcium flux (AID 493022); type: functional
[2] = target: Glucose-6-phosphate 1-dehydrogenase (Homo sapiens, UniProt P11413); assay: human G6PD enzyme inhibitors, dose response, selectivity assay for P. falciparum G6PD inhibitor project, biochemical, fluorescence (AID 504792); type: functional
[3] = target: Genome polyprotein (dengue virus type 2, UniProt P29990); assay: Dengue-2 NS5 methyltransferase inhibitors, primary screen, biochemical, confirmation dose response (AID 588689); type: functional
[4] = target: T1, Hexokinase HKDC1 (Homo sapiens, UniProt Q2TB90); assay: HKDC1 hexokinase inhibitors, dose response, biochemical, W721R variant (AID 504729); type: functional
T1 sequence (Q2TB90 whole entry): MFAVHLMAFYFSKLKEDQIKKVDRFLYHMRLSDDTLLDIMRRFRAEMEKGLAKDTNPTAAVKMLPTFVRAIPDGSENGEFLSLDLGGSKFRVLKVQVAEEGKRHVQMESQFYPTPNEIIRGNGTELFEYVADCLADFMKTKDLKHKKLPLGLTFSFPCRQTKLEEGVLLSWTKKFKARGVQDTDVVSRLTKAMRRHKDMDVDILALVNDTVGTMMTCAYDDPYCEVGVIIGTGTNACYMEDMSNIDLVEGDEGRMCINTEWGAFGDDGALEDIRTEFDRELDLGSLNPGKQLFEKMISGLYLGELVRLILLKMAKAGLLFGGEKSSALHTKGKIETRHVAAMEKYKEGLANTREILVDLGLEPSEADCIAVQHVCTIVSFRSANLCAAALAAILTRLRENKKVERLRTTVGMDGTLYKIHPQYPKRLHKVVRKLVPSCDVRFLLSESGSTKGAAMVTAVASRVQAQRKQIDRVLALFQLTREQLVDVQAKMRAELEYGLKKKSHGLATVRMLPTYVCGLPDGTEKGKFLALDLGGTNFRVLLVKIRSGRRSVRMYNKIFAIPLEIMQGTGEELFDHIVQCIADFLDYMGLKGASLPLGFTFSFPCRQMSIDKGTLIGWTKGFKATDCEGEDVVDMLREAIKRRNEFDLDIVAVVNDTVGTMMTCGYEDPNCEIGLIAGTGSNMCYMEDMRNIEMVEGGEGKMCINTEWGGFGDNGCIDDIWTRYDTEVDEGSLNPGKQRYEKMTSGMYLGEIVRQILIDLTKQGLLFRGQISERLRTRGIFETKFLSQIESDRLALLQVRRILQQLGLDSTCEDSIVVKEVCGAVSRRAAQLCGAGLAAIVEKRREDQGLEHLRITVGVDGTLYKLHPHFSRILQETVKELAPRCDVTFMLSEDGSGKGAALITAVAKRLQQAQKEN

[5] = target: T2, Hepatocyte nuclear factor 4-alpha (Homo sapiens, UniProt P41235); type: functional, cell-based;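 note: biochemical luminescence-based dose-response counterscreen measuring inhibition of HNF4 dimerization, run alongside a screen for blockers of ABHD5–perilipin-5 interaction; split luciferase complementation of HNF4 fusion proteins in cell lysate measuring dimerization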
T2 sequence (P41235 whole entry): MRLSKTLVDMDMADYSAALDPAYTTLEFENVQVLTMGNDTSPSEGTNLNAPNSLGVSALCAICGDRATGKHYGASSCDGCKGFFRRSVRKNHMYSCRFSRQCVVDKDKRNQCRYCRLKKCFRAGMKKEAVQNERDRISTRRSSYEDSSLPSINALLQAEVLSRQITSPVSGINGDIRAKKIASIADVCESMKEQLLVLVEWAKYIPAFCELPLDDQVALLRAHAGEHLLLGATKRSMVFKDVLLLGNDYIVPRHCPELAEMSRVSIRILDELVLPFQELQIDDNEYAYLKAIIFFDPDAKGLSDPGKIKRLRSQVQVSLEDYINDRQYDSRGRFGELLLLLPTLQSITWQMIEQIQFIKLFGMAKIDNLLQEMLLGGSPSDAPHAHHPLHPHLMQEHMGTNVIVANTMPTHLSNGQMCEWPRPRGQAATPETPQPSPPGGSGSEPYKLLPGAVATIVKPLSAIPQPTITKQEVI

[6] = target: Beta-galactosidase (Escherichia coli, UniProt Q8VNN2); assay: beta-galactosidase enzyme inhibitors and activators, dose response, artefact control for CCR6 antagonist project, biochemical, E. coli enzyme, set 3 (AID 504712); type: functional
[7] = target: G-protein coupled receptor 55 (Homo sapiens, UniProt Q9Y2T6); assay: SAR Analysis of Selective Antagonists of GPR55 using an Image-Based Assay - Set 3. [Related pubchem assays (depositor defined):AID2058, AID2079]; type: functional
[8] = target: G-protein coupled receptor 35 (Homo sapiens, UniProt Q9HC97); assay: SAR analysis of Antagonists of the GPR35 Receptor using an Image-Based Assay - Set 5. [Related pubchem assays (depositor defined):AID2058, AID2079]; type: functional
[9] = target: Sphingosine 1-phosphate receptor 4 (Homo sapiens, UniProt O95977); assay: S1P4 receptor agonists, human, late-stage follow-up, cell-based, fluorescence, synthesized compounds (AID 463107); type: functional
[10] = target: Cytochrome P450 2D6 (Homo sapiens, UniProt P10635);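 note: CYP2D6 member of a cytochrome P450 panel assay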
[11] = target: Phosphoethanolamine/phosphocholine phosphatase (Homo sapiens, UniProt Q8TCT1); assay: SAR assay for compounds that inhibit PHOSPHO1. [Related pubchem assays (depositor defined):AID1545, AID1565, AID1574]

Sequence of G-protein coupled receptor 55 (Q9Y2T6 whole entry): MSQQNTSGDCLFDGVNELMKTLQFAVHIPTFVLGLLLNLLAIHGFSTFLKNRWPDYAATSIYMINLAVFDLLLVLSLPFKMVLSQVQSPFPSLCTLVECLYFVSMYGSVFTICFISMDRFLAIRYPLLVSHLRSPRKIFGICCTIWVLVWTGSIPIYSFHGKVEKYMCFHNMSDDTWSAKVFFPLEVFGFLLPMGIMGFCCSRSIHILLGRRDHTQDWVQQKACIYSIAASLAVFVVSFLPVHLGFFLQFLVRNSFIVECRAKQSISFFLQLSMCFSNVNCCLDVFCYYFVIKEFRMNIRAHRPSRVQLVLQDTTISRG
Sequence of Glucose-6-phosphate 1-dehydrogenase (P11413 whole entry): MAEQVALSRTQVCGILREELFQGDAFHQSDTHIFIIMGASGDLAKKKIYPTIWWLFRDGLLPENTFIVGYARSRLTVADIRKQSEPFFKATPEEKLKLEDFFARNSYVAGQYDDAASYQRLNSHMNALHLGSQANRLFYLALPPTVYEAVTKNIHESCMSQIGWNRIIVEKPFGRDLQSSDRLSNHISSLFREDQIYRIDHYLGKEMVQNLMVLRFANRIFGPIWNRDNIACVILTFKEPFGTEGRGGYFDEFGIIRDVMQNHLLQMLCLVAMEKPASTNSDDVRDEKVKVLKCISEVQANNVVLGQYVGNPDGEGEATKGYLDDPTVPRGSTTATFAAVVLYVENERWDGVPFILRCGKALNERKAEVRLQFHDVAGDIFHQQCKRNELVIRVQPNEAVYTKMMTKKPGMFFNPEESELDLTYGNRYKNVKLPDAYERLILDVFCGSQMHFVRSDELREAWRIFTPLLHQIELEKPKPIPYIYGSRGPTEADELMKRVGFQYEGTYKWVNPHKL
Sequence of Beta-galactosidase (Q8VNN2 whole entry): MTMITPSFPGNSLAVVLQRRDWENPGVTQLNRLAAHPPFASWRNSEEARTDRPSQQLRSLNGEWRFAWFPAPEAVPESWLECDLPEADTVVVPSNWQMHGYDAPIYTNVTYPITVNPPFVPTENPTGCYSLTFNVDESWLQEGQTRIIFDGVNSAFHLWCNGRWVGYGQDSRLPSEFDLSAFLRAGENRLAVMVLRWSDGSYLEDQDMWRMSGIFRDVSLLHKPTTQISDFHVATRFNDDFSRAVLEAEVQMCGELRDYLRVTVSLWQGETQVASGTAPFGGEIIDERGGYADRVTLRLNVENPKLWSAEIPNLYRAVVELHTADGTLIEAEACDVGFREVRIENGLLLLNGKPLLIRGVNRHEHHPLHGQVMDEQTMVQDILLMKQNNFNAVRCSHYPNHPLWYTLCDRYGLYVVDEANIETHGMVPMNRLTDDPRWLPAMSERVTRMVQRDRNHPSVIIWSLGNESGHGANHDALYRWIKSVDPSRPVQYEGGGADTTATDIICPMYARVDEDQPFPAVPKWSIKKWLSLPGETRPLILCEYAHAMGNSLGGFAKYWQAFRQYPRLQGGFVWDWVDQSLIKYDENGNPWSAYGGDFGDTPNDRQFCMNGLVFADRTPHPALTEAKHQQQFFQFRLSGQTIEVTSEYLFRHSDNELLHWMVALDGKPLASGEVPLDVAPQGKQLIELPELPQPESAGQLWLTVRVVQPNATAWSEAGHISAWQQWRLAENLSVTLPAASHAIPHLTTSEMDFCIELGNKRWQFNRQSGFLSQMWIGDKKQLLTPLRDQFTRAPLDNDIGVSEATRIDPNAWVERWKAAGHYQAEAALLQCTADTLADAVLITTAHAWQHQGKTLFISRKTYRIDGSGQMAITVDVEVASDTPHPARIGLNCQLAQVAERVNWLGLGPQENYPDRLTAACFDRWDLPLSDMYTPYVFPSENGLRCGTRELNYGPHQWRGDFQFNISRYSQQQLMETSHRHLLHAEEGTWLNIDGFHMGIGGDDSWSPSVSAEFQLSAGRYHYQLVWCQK
Sequence of Voltage-dependent T-type calcium channel subunit alpha-1H (O95180 whole entry): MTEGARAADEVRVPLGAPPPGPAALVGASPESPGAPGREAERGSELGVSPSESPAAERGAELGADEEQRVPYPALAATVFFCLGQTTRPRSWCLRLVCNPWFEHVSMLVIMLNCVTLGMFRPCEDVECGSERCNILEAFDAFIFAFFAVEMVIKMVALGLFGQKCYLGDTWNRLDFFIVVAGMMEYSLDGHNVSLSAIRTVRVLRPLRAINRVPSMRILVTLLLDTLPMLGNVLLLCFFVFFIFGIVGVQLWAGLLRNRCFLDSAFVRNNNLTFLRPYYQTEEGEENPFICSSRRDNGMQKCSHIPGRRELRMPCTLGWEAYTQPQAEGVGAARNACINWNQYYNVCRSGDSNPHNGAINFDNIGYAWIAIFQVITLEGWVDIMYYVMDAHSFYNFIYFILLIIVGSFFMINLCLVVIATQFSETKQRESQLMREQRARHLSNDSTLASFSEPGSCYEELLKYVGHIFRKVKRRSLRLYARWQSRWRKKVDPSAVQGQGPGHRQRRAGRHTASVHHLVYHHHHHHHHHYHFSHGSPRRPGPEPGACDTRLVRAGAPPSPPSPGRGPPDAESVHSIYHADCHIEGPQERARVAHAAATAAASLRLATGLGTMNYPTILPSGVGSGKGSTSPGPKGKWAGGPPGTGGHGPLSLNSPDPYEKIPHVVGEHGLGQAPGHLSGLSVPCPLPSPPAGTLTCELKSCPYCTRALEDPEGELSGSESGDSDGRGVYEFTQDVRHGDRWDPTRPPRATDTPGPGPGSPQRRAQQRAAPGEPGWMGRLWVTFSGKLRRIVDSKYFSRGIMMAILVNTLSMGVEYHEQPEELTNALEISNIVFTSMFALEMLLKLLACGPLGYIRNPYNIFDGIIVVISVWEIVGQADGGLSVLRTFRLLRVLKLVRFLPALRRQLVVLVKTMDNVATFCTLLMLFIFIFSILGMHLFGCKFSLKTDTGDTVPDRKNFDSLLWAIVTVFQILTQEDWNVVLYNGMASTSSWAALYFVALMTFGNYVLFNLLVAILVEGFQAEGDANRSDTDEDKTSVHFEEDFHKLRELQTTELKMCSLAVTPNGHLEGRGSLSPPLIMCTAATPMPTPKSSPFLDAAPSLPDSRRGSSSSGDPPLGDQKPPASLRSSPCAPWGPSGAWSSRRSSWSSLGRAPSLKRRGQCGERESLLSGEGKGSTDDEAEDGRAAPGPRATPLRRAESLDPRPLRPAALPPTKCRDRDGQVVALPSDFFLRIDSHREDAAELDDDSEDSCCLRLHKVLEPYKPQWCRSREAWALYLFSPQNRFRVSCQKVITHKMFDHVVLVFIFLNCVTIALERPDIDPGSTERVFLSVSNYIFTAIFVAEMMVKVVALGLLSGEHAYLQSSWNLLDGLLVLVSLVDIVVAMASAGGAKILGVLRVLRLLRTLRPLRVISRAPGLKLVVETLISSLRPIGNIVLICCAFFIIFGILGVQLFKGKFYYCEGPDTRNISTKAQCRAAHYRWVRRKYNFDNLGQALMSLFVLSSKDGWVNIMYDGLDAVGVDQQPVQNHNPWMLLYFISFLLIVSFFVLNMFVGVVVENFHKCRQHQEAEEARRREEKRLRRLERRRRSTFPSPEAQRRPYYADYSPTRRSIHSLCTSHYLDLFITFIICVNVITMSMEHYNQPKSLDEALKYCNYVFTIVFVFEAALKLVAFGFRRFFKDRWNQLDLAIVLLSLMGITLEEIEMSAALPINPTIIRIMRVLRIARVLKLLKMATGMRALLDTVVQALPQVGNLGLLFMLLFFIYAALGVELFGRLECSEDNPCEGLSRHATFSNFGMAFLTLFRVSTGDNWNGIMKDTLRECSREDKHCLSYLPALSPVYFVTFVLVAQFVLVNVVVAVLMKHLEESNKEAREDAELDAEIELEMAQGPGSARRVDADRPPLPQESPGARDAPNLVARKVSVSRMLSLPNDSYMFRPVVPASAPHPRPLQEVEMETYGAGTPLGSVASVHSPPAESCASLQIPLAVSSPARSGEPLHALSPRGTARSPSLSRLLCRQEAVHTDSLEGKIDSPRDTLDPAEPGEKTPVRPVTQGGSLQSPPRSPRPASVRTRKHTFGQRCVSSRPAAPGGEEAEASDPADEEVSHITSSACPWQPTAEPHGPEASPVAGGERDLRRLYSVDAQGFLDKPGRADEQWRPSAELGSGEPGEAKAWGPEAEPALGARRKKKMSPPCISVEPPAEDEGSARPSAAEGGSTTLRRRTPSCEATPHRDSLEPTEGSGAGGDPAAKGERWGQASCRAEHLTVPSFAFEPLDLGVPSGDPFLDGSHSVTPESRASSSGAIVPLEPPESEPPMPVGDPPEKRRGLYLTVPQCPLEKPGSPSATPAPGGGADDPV
Sequence of G-protein coupled receptor 35 (Q9HC97 whole entry): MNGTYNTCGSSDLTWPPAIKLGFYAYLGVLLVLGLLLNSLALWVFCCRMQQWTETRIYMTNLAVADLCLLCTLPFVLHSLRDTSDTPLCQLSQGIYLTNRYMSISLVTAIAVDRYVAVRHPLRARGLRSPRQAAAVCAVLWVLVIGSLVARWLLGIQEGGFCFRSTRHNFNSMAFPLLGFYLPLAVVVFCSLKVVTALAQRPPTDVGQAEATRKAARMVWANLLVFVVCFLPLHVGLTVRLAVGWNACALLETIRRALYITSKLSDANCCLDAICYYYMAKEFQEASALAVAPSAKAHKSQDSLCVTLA
Sequence of Cytochrome P450 2D6 (P10635 whole entry): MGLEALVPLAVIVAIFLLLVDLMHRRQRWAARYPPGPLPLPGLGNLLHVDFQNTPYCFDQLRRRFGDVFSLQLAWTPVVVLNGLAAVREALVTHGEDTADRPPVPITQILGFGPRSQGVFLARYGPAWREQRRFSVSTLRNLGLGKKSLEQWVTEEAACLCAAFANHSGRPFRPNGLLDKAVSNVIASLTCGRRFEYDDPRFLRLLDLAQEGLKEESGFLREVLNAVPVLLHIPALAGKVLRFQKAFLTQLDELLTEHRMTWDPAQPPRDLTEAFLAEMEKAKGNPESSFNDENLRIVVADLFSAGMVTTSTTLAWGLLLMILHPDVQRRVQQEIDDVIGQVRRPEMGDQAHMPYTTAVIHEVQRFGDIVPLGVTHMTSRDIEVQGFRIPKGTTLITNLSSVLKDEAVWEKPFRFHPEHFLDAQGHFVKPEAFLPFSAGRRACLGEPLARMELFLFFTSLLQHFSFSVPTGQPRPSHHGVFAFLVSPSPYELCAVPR

SMILES: CN(C)c1ccc(Cc2cc3c(O)ccc(O)c3cc(Cc3ccc(N(C)C)cc3)c2=O)cc1
IC50 [2]: 56.7 µM (inactive) | IC50 [3]: 44.1 µM (active) | IC50 [4]: 10.9 µM (active) | IC50 [5]: 4.6 µM (active) | IC50 [6]: > 66.6 µM (inactive)

SMILES: Cc1c(OCC(F)(F)F)ccnc1C[S+]([O-])c1nc2ccccc2[nH]1 (stereo unspecified) [LANSOPRAZOLE]
AC50 [10]: 12.6 µM (inconclusive) | IC50 [11]: 0.434 µM (active)

Now from value to compound:

EC50 [1]: 1.3 µM (active)
SMILES: Cc1ccc(-c2nnc(NC(=O)COc3ccccc3Cl)o2)cc1C

IC50 [7]: > 32 µM (inactive) | IC50 [8]: 4.6 µM (active)
SMILES: COC(=O)c1cnn(-c2ccc(Cl)cc2)c1/C=N/NC(N)=S

EC50 [9]: > 50 µM (inactive)
SMILES: Cc1ccc(OCCCOc2ccc(Cl)cc2Cl)c([N+](=O)[O-])n1
